A word on the melting point: it is the temperature, or range, at which the solid turns liquid. For orientation: ED50 means the dose at which the effect has come halfway, by size or by number of responders.

One series has as its target T1, TBK1 (Homo sapiens, UniProt Q9UHD2).
T1 construct: host or cells: RA1-ISRE beta-lactamase reporter cells
T1 sequence (Q9UHD2 1-729): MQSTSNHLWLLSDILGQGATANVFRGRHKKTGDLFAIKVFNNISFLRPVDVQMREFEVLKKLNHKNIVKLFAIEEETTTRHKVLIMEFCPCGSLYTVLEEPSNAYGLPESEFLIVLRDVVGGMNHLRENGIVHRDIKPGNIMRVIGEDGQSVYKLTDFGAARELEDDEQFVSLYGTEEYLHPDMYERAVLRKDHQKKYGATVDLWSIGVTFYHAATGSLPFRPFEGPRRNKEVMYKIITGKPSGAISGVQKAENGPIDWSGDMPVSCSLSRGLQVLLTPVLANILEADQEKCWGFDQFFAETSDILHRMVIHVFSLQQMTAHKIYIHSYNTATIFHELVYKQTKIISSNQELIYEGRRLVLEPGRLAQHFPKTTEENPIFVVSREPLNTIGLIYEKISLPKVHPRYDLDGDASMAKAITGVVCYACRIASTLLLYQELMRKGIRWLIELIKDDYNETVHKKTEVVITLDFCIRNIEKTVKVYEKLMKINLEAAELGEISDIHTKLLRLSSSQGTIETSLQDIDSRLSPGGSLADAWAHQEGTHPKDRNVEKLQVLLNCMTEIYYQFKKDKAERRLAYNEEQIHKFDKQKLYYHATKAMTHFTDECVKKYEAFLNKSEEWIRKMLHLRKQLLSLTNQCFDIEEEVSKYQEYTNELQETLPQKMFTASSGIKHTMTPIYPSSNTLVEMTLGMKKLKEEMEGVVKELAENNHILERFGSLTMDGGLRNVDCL
As to the kind of experiment: Inhibition of TBK1 in Cells (TLR3 driven ISRE β-lactamase reporter assay). The note with it: poly IC-LMW stimulation 16 hrs; -log(EC50), EC50 molar; read-out: Inhibition of TBK1 in cells pEC50 (EC) (converted). The class given is cell-based. A digest of the protocol: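 RA1-ISRE β-lactamase reporter cells (50,000/well) treated with 11-point 2.5-fold compound dilutions and stimulated with 0.15 mg/ml poly IC-LMW for 16 hrs. Reporter read by CCF4-AM FRET; EC50 from non-linear fit of percent inhibition, reported as pEC50 (molar).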
(A reporter such as luciferase makes a cellular process visible.)

A further series deals with T2, Full length human TBK1 (Homo sapiens, UniProt Q9UHD2).
T2 construct: Full length human TBK1 with an N-terminal His-tag; His-tag (N); made in house; host or cells: Sf9 insect cells (baculovirus, pFastBac1)
T2 sequence (Q9UHD2 1-729): T1 sequence (Q9UHD2 1-729)
Briefly: Inhibition of TBK1 Enzyme (Caliper microfluidic assay). Format: biochemical. The note with it: 25 μM ATP, 60 min at RT; -log(IC50), IC50 molar; read-out: TBK1 Inhibition (pIC50) (converted). A digest of the protocol:
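Enzyme: His-tagged full-length TBK1 expressed in Sf9. Reaction 60 min at RT in 20 mM Hepes pH 7.4, 10 mM MgCl2, 1 mM EDTA, 0.01% Brij-L23, 1 mM DTT, with 5FAM-peptide (added at 1 μM) and TBK1/ATP mix (added at 3 nM/25 μM), then EDTA-quenched. Conversion measured by microfluidic separation; 11-point 2.5-fold series fit to pIC50.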

The next series deals with C57/BL6 mice. As to the kind of experiment: Inhibition of ConA Induced Hepatitis (plasma ALT). Format: in vivo. The note with it: Mus musculus; oral, 1 hr before ConA 15 mg/kg i.v.; plasma collected post 8-24 hrs; read-out: ED50 (amount reducing ConA induced increase in plasma ALT level by 50%). The procedure:
Orally administer compound into normal C57/BL6 mice at several doses. After 1 hr, inject i.v. with ConA 15 mg/kg, (N=5). Post 8-24 hrs, collect plasma and liver. Measure plasma ALT enzyme level. An ED50 is determined as the amount of test compound that reduces ConA induced increase in plasma ALT level by 50%.

As to `Cn1nc(-c2ccc3nc(NC(=O)C4CC4)cn3c2)cc1C(=O)NCC(F)(F)F` [Example 1, 3-(2-(cyclopropanecarboxamido)imidazo[1,2-a]pyridin-6-yl)-1-methyl-N-(2,2,2-trifluoroethyl)-1H-pyrazole-5-carboxamide], the melting point was in the range of 251 to 255 °C. Besides, the EC50 on TBK1 is 8320 nM. Besides, at Full length human TBK1, the IC50 was 251 nM.
`O=C(NCC(F)F)c1nc(-c2ccc3nc(NC(=O)C4CC4)cn3c2)cs1` [Example 86, 4-(2-(cyclopropanecarboxamido)imidazo[1,2-a]pyridin-6-yl)-N-(2,2-difluoroethyl)thiazole-2-carboxamide]: the ED50 with C57/BL6 mice was 5 mg/kg. Moreover, on TBK1, the EC50 is 537 nM. Also, the IC50 at Full length human TBK1 is 15.8 nM.
As to `CC(F)(F)CNC(=O)c1cc(-c2ccc3nc(NC(=O)C4CC4)cn3c2)cs1` [Example 3, 4-(2-(cyclopropanecarboxamido)imidazo[1,2-a]pyridin-6-yl)-N-(2,2-difluoropropyl)thiophene-2-carboxamide], the melting point was 117 to 119 °C. The EC50 on TBK1 is 166 nM. Further, the IC50 at Full length human TBK1 was 5.01 nM.
Compound `CC(=O)Nc1cn2cc(-c3csc(C(=O)NCC(F)(F)F)c3)ccc2n1` [Example 13, 4-(2-acetamidoimidazo[1,2-a]pyridin-6-yl)-N-(2,2,2-trifluoroethyl)thiophene-2-carboxamide] had a melting point of 180 to 182 °C. At TBK1, the EC50 is 813 nM. Besides, on Full length human TBK1, the IC50 is 25.1 nM.
In turn, `Cn1nc(-c2ccc3nc(NC(=O)C4CC4)cn3c2)cc1C(=O)NCC(F)F` [Example 2, 3-(2-(cyclopropanecarboxamido)imidazo[1,2-a]pyridin-6-yl)-N-(2,2-difluoroethyl)-1-methyl-1H-pyrazole-5-carboxamide] yielded a melting point of 284 to 290 °C. Further, the EC50 at TBK1 was 8320 nM. The IC50 on Full length human TBK1 was 316 nM.
For the compound `O=C(NCC(F)(F)F)c1nc(-c2ccc3nc(NC(=O)C4CC4)cn3c2)cs1` [Example 4, 4-(2-(cyclopropanecarboxamido)imidazo[1,2-a]pyridin-6-yl)-N-(2,2,2-trifluoroethyl)thiazole-2-carboxamide], the melting point lay within 279 to 282 °C. Besides, on TBK1, the EC50 was 617 nM. Also, on Full length human TBK1, the IC50 is 5.01 nM.
Turning to `COCCC(=O)Nc1cn2cc(-c3csc(C(=O)NCC(F)(F)F)c3)ccc2n1` [Example 15, 4-(2-(3-methoxypropanamido)imidazo[1,2-a]pyridin-6-yl)-N-(2,2,2-trifluoroethyl)thiophene-2-carboxamide], the melting point is 231 to 233 °C. The EC50 at TBK1 is 933 nM. For the same compound, the IC50 at Full length human TBK1 was 25.1 nM.
Take `Cc1c(-c2ccc3nc(NC(=O)C4CC4)cn3c2)n[nH]c1C(=O)NCC(F)(F)F` [Example 25, 3-(2-(cyclopropanecarboxamido)imidazo[1,2-a]pyridin-6-yl)-4-methyl-N-(2,2,2-trifluoroethyl)-1H-pyrazole-5-carboxamide]: the melting point was above 275 °C. Also, at TBK1, the EC50 is 3310 nM. The IC50 on Full length human TBK1 was 79.4 nM.
For `COCC(=O)Nc1cn2cc(-c3csc(C(=O)NCC(F)(F)F)c3)ccc2n1` [Example 14, 4-(2-(2-methoxyacetamido)imidazo[1,2-a]pyridin-6-yl)-N-(2,2,2-trifluoroethyl)thiophene-2-carboxamide], in that order: 230 to 232 °C, 1740 nM and 39.8 nM.
As for `O=C(N[C@@H]1CCCOC1)c1cc(-c2ccc3nc(NC(=O)C4CC4)cn3c2)cs1` [Example 69, (R)-4-(2-(cyclopropanecarboxamido)imidazo[1,2-a]pyridin-6-yl)-N-(tetrahydro-2H-pyran-3-yl)thiophene-2-carboxamide], the EC50 at TBK1 was 2880 nM. Moreover, at Full length human TBK1, the IC50 is 100 nM.

These data come from patent publication US9598424B2 (Takeda Pharmaceutical Company Limited, priority 2014, dated 2017).
